Where two headings read alike, the source gives them in different places.
How the values were obtained:
Test in all cases: Eurofins KINOMEscan profiling, 97 kinases
[1] = molecular target: 97 kinases (kinase named in endpoint) (Homo sapiens, UniProt P10721); details: read-out: % Ctrl, KIT
[2] = molecular target: 97 kinases (kinase named in endpoint) (Homo sapiens, UniProt P53350); details: read-out: % Ctrl, PLK1
[3] = molecular target: 97 kinases (kinase named in endpoint) (Homo sapiens, UniProt Q06187); details: read-out: % Ctrl, BTK
[4] = molecular target: 97 kinases (kinase named in endpoint) (Homo sapiens, UniProt P00533, L858R); details: read-out: % Ctrl, EGFR(L858R)
Chain of 97 kinases (kinase named in endpoint) (Homo sapiens, UniProt P00533, L858R) (P00533 25-1210 L858R): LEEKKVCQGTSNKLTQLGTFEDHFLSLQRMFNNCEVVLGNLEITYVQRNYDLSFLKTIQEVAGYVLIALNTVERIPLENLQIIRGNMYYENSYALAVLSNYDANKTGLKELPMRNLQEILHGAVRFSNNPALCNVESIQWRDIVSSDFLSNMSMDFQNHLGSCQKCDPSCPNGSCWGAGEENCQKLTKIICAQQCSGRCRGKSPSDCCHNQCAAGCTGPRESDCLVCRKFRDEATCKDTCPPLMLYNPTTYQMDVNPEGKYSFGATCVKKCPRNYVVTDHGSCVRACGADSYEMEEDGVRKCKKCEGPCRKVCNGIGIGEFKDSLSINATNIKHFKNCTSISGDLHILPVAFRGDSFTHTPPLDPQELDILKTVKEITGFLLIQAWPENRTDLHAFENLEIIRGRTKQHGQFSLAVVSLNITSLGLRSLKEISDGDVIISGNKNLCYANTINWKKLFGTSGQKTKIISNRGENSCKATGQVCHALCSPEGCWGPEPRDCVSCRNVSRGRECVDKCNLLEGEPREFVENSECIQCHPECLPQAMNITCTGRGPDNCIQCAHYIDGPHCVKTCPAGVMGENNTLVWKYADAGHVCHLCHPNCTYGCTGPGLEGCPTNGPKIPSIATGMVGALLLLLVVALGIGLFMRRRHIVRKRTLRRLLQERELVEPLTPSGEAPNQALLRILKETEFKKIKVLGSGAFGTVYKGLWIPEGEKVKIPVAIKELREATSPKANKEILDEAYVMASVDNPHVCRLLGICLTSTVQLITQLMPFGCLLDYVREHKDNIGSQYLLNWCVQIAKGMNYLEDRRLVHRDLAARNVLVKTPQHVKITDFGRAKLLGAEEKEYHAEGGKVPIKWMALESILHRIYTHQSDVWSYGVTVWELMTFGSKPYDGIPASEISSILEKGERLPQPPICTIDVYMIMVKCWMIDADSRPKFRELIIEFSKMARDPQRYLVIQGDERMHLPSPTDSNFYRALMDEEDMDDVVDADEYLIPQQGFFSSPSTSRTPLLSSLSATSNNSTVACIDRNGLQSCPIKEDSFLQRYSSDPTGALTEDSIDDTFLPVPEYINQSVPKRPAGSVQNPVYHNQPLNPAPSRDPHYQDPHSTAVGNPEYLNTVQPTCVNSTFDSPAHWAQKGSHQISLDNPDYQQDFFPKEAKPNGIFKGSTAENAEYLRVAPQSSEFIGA

[5] = molecular target: 97 kinases (kinase named in endpoint) (Homo sapiens, UniProt P48736); details: read-out: % Ctrl, PIK3CG
[6] = molecular target: 97 kinases (kinase named in endpoint) (Homo sapiens, UniProt Q9UPE1); details: read-out: % Ctrl, SRPK3
Chain of 97 kinases (kinase named in endpoint) (Homo sapiens, UniProt Q9UPE1) (Q9UPE1 whole entry): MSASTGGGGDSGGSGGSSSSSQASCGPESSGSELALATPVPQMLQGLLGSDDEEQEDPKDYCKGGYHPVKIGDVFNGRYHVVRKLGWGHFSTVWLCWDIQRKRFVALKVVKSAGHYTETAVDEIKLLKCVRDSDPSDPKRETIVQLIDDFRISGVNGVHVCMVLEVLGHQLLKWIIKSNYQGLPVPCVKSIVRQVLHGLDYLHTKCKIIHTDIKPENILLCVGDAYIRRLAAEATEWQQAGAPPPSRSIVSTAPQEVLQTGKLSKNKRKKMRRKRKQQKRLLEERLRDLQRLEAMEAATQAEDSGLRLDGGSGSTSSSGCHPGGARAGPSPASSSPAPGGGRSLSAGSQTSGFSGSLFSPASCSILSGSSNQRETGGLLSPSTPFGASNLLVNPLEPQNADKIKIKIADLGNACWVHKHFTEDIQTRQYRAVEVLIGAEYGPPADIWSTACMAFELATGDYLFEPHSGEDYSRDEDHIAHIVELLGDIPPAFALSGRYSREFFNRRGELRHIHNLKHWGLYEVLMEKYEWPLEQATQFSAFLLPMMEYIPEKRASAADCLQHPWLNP

[7] = molecular target: 97 kinases (kinase named in endpoint) (Homo sapiens, UniProt P31751); details: read-out: % Ctrl, AKT2
[8] = molecular target: 97 kinases (kinase named in endpoint) (Homo sapiens, UniProt Q02763); details: read-out: % Ctrl, TIE2
[9] = molecular target: 97 kinases (kinase named in endpoint) (Homo sapiens, UniProt P17612); details: read-out: % Ctrl, PKAC-alpha
[10] = molecular target: 97 kinases (kinase named in endpoint) (Homo sapiens, UniProt O14757); details: read-out: % Ctrl, CHEK1
Chain of 97 kinases (kinase named in endpoint) (Homo sapiens, UniProt O14757) (O14757 whole entry): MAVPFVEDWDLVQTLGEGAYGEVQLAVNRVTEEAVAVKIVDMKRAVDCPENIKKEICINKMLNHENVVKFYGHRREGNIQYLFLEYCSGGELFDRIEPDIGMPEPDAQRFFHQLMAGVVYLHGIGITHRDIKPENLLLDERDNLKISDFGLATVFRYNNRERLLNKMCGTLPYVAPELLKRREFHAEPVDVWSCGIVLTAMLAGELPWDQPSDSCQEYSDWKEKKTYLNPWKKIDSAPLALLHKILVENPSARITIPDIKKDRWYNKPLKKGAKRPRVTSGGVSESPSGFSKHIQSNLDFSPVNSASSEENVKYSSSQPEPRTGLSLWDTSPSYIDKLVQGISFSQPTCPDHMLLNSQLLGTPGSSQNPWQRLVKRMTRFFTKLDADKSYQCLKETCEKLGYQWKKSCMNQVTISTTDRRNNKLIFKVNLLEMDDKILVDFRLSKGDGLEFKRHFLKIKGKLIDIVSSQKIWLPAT

[11] = molecular target: 97 kinases (kinase named in endpoint) (Homo sapiens, UniProt P35968); details: read-out: % Ctrl, VEGFR2
[12] = molecular target: 97 kinases (kinase named in endpoint) (Homo sapiens, UniProt P78368); details: read-out: % Ctrl, CSNK1G2
Chain of 97 kinases (kinase named in endpoint) (Homo sapiens, UniProt P78368) (P78368 whole entry): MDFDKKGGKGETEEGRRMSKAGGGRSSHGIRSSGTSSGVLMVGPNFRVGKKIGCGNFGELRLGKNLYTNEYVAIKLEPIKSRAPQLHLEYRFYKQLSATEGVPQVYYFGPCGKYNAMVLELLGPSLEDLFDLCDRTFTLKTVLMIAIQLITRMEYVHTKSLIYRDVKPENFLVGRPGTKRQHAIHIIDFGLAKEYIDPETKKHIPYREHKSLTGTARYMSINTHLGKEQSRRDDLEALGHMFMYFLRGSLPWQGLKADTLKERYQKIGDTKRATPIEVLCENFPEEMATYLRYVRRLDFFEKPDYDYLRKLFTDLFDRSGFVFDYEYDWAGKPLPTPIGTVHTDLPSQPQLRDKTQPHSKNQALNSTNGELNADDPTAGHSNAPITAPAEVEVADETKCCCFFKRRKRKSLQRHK

[13] = molecular target: 97 kinases (kinase named in endpoint) (Homo sapiens, UniProt Q9BXA7); details: read-out: % Ctrl, TSSK1B
[14] = molecular target: 97 kinases (kinase named in endpoint) (Homo sapiens, UniProt P49137); details: read-out: % Ctrl, MAPKAPK2
[15] = molecular target: 97 kinases (kinase named in endpoint) (Homo sapiens, UniProt P00519)
Chain of 97 kinases (kinase named in endpoint) (Homo sapiens, UniProt P00519) (P00519 whole entry): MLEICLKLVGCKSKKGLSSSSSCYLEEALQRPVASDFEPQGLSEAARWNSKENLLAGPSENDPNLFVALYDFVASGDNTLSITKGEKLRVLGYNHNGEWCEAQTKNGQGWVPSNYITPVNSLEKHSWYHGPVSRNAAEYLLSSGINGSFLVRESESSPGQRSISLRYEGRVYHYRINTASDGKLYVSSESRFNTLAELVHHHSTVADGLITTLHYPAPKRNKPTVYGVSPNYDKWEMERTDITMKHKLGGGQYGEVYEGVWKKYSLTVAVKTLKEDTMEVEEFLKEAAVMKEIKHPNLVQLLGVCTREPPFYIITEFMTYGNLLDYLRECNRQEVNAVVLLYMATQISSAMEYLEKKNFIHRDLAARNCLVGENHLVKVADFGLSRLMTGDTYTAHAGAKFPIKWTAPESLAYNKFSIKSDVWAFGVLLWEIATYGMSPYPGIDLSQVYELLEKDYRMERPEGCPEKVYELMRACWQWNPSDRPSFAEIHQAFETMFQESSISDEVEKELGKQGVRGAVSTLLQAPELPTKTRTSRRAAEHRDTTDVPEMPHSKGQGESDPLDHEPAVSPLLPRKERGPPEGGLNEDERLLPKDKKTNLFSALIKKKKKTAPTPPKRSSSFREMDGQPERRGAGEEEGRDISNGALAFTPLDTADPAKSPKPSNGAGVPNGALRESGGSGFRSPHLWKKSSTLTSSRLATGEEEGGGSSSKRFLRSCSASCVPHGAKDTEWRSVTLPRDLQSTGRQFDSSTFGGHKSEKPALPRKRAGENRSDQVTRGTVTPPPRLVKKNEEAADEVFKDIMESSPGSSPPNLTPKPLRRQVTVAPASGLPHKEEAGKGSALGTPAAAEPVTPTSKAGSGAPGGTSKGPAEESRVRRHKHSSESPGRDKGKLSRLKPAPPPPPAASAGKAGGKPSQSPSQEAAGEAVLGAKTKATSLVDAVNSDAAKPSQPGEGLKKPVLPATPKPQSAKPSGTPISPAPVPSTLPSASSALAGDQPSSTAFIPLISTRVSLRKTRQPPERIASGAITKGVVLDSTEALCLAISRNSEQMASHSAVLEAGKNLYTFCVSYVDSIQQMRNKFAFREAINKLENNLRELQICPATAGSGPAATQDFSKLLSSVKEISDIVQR

[16] = molecular target: 97 kinases (kinase named in endpoint) (Homo sapiens, UniProt Q86UX6); details: read-out: % Ctrl, YANK3
[17] = molecular target: 97 kinases (kinase named in endpoint) (Homo sapiens, UniProt P30530); details: read-out: % Ctrl, AXL
[18] = molecular target: 97 kinases (kinase named in endpoint) (Homo sapiens, UniProt Q13153); details: read-out: % Ctrl, PAK1
[19] = molecular target: 97 kinases (kinase named in endpoint) (Homo sapiens, UniProt P48730); details: read-out: % Ctrl, CSNK1D
Chain of 97 kinases (kinase named in endpoint) (Homo sapiens, UniProt P48730) (P48730 whole entry): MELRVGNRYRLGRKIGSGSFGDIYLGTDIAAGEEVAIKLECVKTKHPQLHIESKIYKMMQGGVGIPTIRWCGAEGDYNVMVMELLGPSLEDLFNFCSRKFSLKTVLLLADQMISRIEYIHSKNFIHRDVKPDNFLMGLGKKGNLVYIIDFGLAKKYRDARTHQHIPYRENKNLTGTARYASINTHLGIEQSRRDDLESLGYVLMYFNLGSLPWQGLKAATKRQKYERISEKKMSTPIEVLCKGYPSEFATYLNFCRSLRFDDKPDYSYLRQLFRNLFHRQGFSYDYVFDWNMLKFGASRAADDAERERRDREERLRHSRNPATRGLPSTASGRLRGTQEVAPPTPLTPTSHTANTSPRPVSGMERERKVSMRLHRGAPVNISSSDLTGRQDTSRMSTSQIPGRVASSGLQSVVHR

[20] = molecular target: 97 kinases (kinase named in endpoint) (Homo sapiens, UniProt P09619); details: read-out: % Ctrl, PDGFRB
[21] = molecular target: 97 kinases (kinase named in endpoint) (Homo sapiens, UniProt P22607); details: read-out: % Ctrl, FGFR3
[22] = molecular target: 97 kinases (kinase named in endpoint) (Homo sapiens, UniProt Q15759); details: read-out: % Ctrl, p38-beta
[23] = molecular target: 97 kinases (kinase named in endpoint) (Homo sapiens, UniProt P36507); details: read-out: % Ctrl, MEK2
[24] = molecular target: 97 kinases (kinase named in endpoint) (Homo sapiens, UniProt O14965); details: read-out: % Ctrl, AURKA
Chain of 97 kinases (kinase named in endpoint) (Homo sapiens, UniProt O14965) (O14965 whole entry): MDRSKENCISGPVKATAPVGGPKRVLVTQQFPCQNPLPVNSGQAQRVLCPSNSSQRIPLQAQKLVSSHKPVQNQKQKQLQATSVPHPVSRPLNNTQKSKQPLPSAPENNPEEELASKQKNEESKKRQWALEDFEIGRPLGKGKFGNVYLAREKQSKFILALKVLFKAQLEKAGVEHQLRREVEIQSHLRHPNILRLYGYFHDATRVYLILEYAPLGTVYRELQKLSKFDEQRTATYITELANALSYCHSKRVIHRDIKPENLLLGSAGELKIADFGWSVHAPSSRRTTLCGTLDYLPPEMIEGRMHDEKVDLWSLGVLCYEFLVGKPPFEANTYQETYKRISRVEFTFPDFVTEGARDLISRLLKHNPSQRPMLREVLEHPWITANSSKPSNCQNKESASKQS

[25] = molecular target: 97 kinases (kinase named in endpoint) (Homo sapiens, UniProt P27361); details: read-out: % Ctrl, ERK1
Chain of 97 kinases (kinase named in endpoint) (Homo sapiens, UniProt P27361) (P27361 whole entry): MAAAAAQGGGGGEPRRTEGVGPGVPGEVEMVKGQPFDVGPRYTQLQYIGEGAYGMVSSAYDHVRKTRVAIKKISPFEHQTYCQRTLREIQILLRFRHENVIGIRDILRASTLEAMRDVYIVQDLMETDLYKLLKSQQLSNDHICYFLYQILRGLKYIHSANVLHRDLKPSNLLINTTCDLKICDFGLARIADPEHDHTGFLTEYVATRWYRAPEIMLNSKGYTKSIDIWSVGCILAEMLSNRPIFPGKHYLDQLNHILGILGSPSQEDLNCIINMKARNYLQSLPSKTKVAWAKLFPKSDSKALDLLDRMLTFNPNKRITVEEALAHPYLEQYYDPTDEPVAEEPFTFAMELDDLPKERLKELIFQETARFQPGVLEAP

[26] = molecular target: 97 kinases (kinase named in endpoint) (Homo sapiens, UniProt P04629); details: read-out: % Ctrl, TRKA
[27] = molecular target: 97 kinases (kinase named in endpoint) (Homo sapiens, UniProt Q9P1W9); details: read-out: % Ctrl, PIM2
[28] = molecular target: 97 kinases (kinase named in endpoint) (Homo sapiens, UniProt P00533); details: read-out: % Ctrl, EGFR
[29] = read-out: % Ctrl, ABL1-nonphosphorylated
[30] = read-out: % Ctrl, ABL1-phosphorylated

Compound: CCCCCCCCCCCCCC(=O)N[C@@H](CC(N)=O)C(=O)N[C@@H](CC(C)C)C(=O)N[C@]1(C)CCCCCCC=CCCC[C@@](C)(C(=O)N[C@@H](CCC(=O)O)C(=O)N[C@@H](CC(C)C)C(=O)N[C@@H](CC(N)=O)C(N)=O)NC(=O)[C@H](CC(C)C)NC(=O)[C@H](CC(C)C)NC(=O)[C@H](CCCNC(=N)N)NC(=O)[C@H](CC(=O)O)NC(=O)[C@H](CC(C)C)NC(=O)[C@H](CCC(=O)O)NC1=O [compound 2012]
- remaining binding at 1 µM [1]: 96%
- remaining binding at 1 µM [2]: 89%
- remaining binding at 1 µM [3]: 100%
- remaining binding at 1 µM [4]: 99%
- remaining binding at 1 µM [5]: 99%
- remaining binding at 1 µM [6]: 79%
- remaining binding at 1 µM [7]: 93%
- remaining binding at 1 µM [8]: 98%
- remaining binding at 1 µM [9]: 91%
- remaining binding at 1 µM [10]: 98%
- remaining binding at 1 µM [11]: 100%
- remaining binding at 1 µM [12]: 99%
- remaining binding at 1 µM [13]: 98%
- remaining binding at 1 µM [14]: 100%
- remaining binding at 1 µM [15, 29]: 56%
- remaining binding at 1 µM [15, 30]: 80%
- remaining binding at 1 µM [16]: 91%
- remaining binding at 1 µM [17]: 74%
- remaining binding at 1 µM [18]: 100%
- remaining binding at 1 µM [19]: 97%
- remaining binding at 1 µM [20]: 94%
- remaining binding at 1 µM [21]: 95%
- remaining binding at 1 µM [22]: 98%
- remaining binding at 1 µM [23]: 79%
- remaining binding at 1 µM [24]: 100%
- remaining binding at 1 µM [25]: 100%
- remaining binding at 1 µM [26]: 100%
- remaining binding at 1 µM [27]: 100%
- remaining binding at 1 µM [28]: 93%

Compound: CNC(=O)c1ccc(Nc2ncc(C(F)(F)F)c(NCc3nccnc3N(C)S(C)(=O)=O)n2)cc1 [defactinib]
- remaining binding at 1 µM [1]: 47%
- remaining binding at 1 µM [2]: 17%
- remaining binding at 1 µM [3]: 100%
- remaining binding at 1 µM [4]: 81%
- remaining binding at 1 µM [5]: 85%
- remaining binding at 1 µM [6]: 47%
- remaining binding at 1 µM [7]: 95%
- remaining binding at 1 µM [8]: 41%
- remaining binding at 1 µM [9]: 72%
- remaining binding at 1 µM [10]: 99%
- remaining binding at 1 µM [11]: 37%
- remaining binding at 1 µM [12]: 39%
- remaining binding at 1 µM [13]: 82%
- remaining binding at 1 µM [14]: 100%
- remaining binding at 1 µM [15, 29]: 37%
- remaining binding at 1 µM [15, 30]: 51%
- remaining binding at 1 µM [16]: 89%
- remaining binding at 1 µM [17]: 3.6%
- remaining binding at 1 µM [18]: 65%
- remaining binding at 1 µM [19]: 93%
- remaining binding at 1 µM [20]: 18%
- remaining binding at 1 µM [21]: 45%
- remaining binding at 1 µM [22]: 89%
- remaining binding at 1 µM [23]: 64%
- remaining binding at 1 µM [24]: 3.9%
- remaining binding at 1 µM [25]: 88%
- remaining binding at 1 µM [26]: 1%
- remaining binding at 1 µM [27]: 100%
- remaining binding at 1 µM [28]: 92%
